{
  "source": "patent US9844546B2",
  "about": "“Antibody against human HIF hydroxylase” (OXFORD UNIVERSITY INNOVATION LIMITED, priority 2001, dated 2017)",
  "key": {"HIF-1α/pVHL interaction": {"target": "T1, HIF-1α/pVHL interaction (Homo sapiens, UniProt P40337)", "T1 construct": "made in house; host or cells: TNT rabbit reticulocyte lysate (Promega), in vitro transcription/translation", "T1 sequence (P40337 whole entry, the tested form may be a part)": "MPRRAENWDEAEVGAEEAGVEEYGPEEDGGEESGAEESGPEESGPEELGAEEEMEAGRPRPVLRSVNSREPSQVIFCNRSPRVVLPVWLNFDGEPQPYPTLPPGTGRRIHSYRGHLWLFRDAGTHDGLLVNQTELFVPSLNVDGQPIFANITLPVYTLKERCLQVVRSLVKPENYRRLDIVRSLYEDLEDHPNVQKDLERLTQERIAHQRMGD", "test": "Polypeptide blocking assay of HIF-1α and pVHL.HA IVTT mixture, anti-HA immunoprecipitation", "type": "binding", "procedure": "Further studies were performed using synthetic polypeptides as inhibitors of the HIF-1α/pVHL interaction (23). […] Results for a series of polypeptides derived from this domain are summarized in FIG. 1B and implicate a similar minimal interaction domain. […] This polypeptide comprises HIF-1α polypeptide residues 556 to 574 and its ability to block binding following exposure to a variety of direct oxidation conditions was assessed.\nWe synthesized a polypeptide (HIF-1α residues 556-574), containing a trans-4-hydroxy-S-proline residue at position 564 (19:Pro564Hyp), since the trans-4-hydroxylation is the commonest enzymatic proline oxidation (25). A polypeptide blocking assay was carried out using the 19:Pro564Hyp modified polypeptide and, as a control, the unmodified polypeptide without the trans-4-hydroxylation (19:WT). The 19:WT polypeptide was either incubated with cell extract before the binding assay or was untreated. The 19:Pro564Hyp polypeptide was added to a mixture of HIF-1α and pVHL-HA IVTTs at a concentration of 1, 0.25, 0.05 or 0.01 μM and the cell extract treated or untreated 19:WT polypeptide at a concentration of 0.5 μM. Interaction of HIF-1α with pVHL was then assayed by anti-HA immunoprecipitation. […] A pVHL capture assay was then carried out using biotinylated synthetic polypeptides. The same polypeptides, 19:Pro564Hyp and 19:WT were assessed for the ability to capture wild type or mutant (Pro86His) pVHL. […] In both cases capture was specific for wild type, as opposed to mutant, pVHL.\n• 1. G. L. Semenza, Genes Dev 14, 1983-91. (2000). • 2. N. V. Iyer, et al., Genes Dev. 12, 149-162 (1997). • 3. E. Maltepe, J. V. Schmidt, D. Baunoch, C. A. Bradfield, M. C. Simon, Nature 386, 403-407 (1997). • 4. G. L. Wang, B.-H. Jiang, E. A. Rue, G. L. Semenza, Proc. Natl. Acad. Sci. USA 92, 5510-5514 (1995). • 5. S. Salceda, J. Caro, J. Biol. Chem. 272, 22642-22647 (1997). • 6. L. E. Huang, J. Gu, M. Schau, H. F. Bunn, Proc. Natl. Acad. Sci. USA 95, 7987-7992 (1998). • 7. M. S. Wiesener, et al., Blood 92, 2260-2268 (1998). • 8. P. H. Maxwell, et al., Nature 399, 271-275 (1999). • 9. K. Iwai, et al., Proc. Natl. Acad. Sci. USA 96, 12436-12441 (1999). • 10. J. Lisztwan, G. Imbert, C. Wirbelauer, M. Gstaiger, W. Krek, Genes Dev 13, 1822-33 (1999). • 11. M. E. Cockman, et al., J Biol Chem (2000). • 12. M. Ohh, et al., Nat Cell Biol 2, 423-7. (2000). • 13. T. Kamura, et al., Proc Natl Acad Sci USA 97, 10430-5. (2000). • 14. K. Tanimoto, Y. Makino, T. Pereira, L. Poellinger, Embo J 19, 4298-309. (2000). • 15. M. A. Goldberg, S. P. Dunning, H. F. Bunn, Science 242, 1412-1415 (1988). • 16. G. L. Wang, G. L. Semenza, Blood 82, 3610-3615 (1993). • 17. G. L. Semenza, Cell 98, 281-284 (1999). • 18. Hypoxia (<0.1% oxygen) was obtained in a workstation with O2, CO2 and temperature control (Ruskinn Technologies, Leeds, UK). For hypoxic harvest, buffers were preincubated in the chamber overnight. RCC4-VHL.HA, labelling conditions and co-immunoprecipitation assays have been described previously (11); in the current study 12.5 μM MG132 was used for proteasomal inhibition. For standard harvest, the cells were removed from the chamber after hypoxic exposure, prior to cell lysis. Co-immunoprecipitation assays on all lysates were performed at 4° C. under ambient oxygen conditions. […] When programming in hypoxia, reaction mix was preincubated in the workstation for 10 minutes before addition of the DNA template. […]"}, "[1]": {"system": "collagen prolyl-hydroxylase (CPH)", "details": "cited from earlier work"}, "[2]": {"system": "HIF hydroxylase (HPH activity)", "test": "HIF hydroxylase (HPH) inhibition, statements of the description", "type": "biochemical"}, "HIF": {"system": "HIF", "test": "Induction of HIF in tissue culture by esterified equivalents", "type": "cell-based", "details": "In-vivo esterified equivalent"}, "[3]": {"system": "HIF-α prolyl-hydroxylase (HIF-PH) of cell extract", "test": "Modifying activity (HIF-PH) of cell extract on HIF substrate (Gal/HIF-1α549-582/VP16 or 19:WT), pVHL capture assay", "type": "biochemical, mammalian", "details": "for Disruption of HIF-VHL interaction: In-vitro inhibitor; for pVHL binding after treatment of Gal-Hif549-582-VP16 with cell extract in the presence of inhibitor: SDS-PAGE and autoradiography; for effect of pretreatment of extracts on modifying activity: clotrimazole 10 μM, methyl-viologen 1 mM, NADase 20 mU/ml", "procedure": "The unlabelled HIF-1α substrate was immunopurified on beads, washed, and aliquots incubated under different test conditions in buffer or cell extract. After further washing, the beads were assayed for ability to interact with 35-S labelled pVHL IVTT (21) which was then visualised by fluorography.\nThe capture of labelled pVHL by different HIF substrates was monitored after exposure to various test conditions.\nWe went on to test a series of 2-oxoglutarate analogues which act as competitive inhibitors of this class of enzyme (29) for ability to inhibit HIF-PH as assessed by the ability of cell extracts to modify either HIF polypeptide (19:WT) or a HIF fusion protein (Gal/HIF-1α549-582/VP16) so as to promote pVHL capture. […] In one such experiment the effect of N-oxalylglycine on pVHL capture by a biotinylated HIF polypeptides as substrate was monitored. The WT:19 and 19:Pro564Hyp polypeptides described above were used as substrates. […] The effect of dimethyl-oxalyglycine on HIF-1α expression was also studied. HIF-1α immunoblot analysis of extracts of Hep3B and U2OS cells exposed to dimethyl-oxalylgylcine (0, 0.1 or 1.0 mM) for 6 hours was carried out. […]"}},
  "data": [
    {"molecule": "34 residue sequence encompassing amino acids 549-582: synthetic polypeptide, HIF-1α residues 549-582", "values": [
      {"measurement": "blocking of HIF-1α/pVHL interaction by polypeptide after exposure to cell extract", "setting": "HIF-1α/pVHL interaction; cell extract supplemented with Fe(II)", "result": "blocking activity was strikingly induced"},
      {"measurement": "blocking of HIF-1α/pVHL interaction by polypeptide not exposed to cell extract", "setting": "HIF-1α/pVHL interaction; untreated polypeptide", "result": "unable to block interaction"}
    ]},
    {"molecule": "CC(NC(=O)C(=O)O)C(=O)O", "note": "(racemic) [(RS)-N-oxaloalanine]", "values": [
      {"measurement": "inhibition of CPH", "setting": "[1]", "result": "poor inhibitor"}
    ]},
    {"molecule": "CCOC(=O)c1ccnc(C(=O)OCC)c1", "note": "[2, 4 diethylpyridine dicarboxylate, 2,4-diethylpyridine dicarboxylate]", "values": [
      {"measurement": "inhibition of HIF hydroxylase / HPH", "setting": "[2]", "result": "found not to inhibit HPH"},
      {"measurement": "Induction of HIF in tissue culture", "setting": "HIF", "result": "No"},
      {"measurement": "inhibition of CPH", "setting": "[1]", "result": "known CPH inhibitor"}
    ]},
    {"molecule": "O=C(O)c1ccnc(C(=O)O)c1", "note": "[2, 4 pyridine dicarboxylic acid]", "values": [
      {"measurement": "Disruption of HIF-VHL interaction", "setting": "[3]", "result": "Yes"}
    ]},
    {"molecule": "CCOC(=O)c1ccc(C(=O)OCC)nc1", "note": "[2, 5 diethylpyridine dicarboxylate]", "values": [
      {"measurement": "Induction of HIF in tissue culture", "setting": "HIF", "result": "No"}
    ]},
    {"molecule": "CCOC(=O)c1cccc(C(=O)OCC)n1", "note": "[2, 6 diethylpyridine dicarboxylate]", "values": [
      {"measurement": "Induction of HIF in tissue culture", "setting": "HIF", "result": "No"}
    ]},
    {"molecule": "CC(C)[C@H](NC(=O)C(=O)O)C(=O)O", "note": "[(S)-oxalovaline]", "values": [
      {"measurement": "inhibition of HIF hydroxylase / HPH", "setting": "[2]", "result": "little or no activity"}
    ]},
    {"molecule": "COC(=O)CNC(=S)C(=O)OC", "note": "[Is1]", "values": [
      {"measurement": "pVHL binding after treatment of Gal-Hif549-582-VP16 with cell extract in the presence of inhibitor", "setting": "[3]", "result": "reduced pVHL binding"}
    ]},
    {"molecule": "O=C(O)CNC(=S)C(=O)O", "note": "[Is3]", "values": [
      {"measurement": "pVHL binding after treatment of Gal-Hif549-582-VP16 with cell extract in the presence of inhibitor", "setting": "[3]", "result": "reduced pVHL binding"}
    ]},
    {"molecule": "COCCNC(=O)c1ccncc1C(=O)NCCOC", "note": "[Is8]", "values": [
      {"measurement": "pVHL binding after treatment of Gal-Hif549-582-VP16 with cell extract in the presence of inhibitor", "setting": "[3]", "result": "reduced pVHL binding"}
    ]},
    {"molecule": "COC(=O)C(=O)NC(C)C(=O)OC", "note": "[Methylmethoxalyl-D/L-alanine]", "values": [
      {"measurement": "Induction of HIF in tissue culture", "setting": "HIF", "result": "No"}
    ]},
    {"molecule": "C[C@@H](NC(=O)C(=O)O)C(=O)O", "note": "[N-oxalyl-2R-alanine]", "values": [
      {"measurement": "inhibition of modifying activity of cell extract on 19:WT (pVHL capture)", "setting": "[3]; N-oxalylglycine 0.2-1 mM, overcome by 5 mM 2-oxoglutarate", "result": "not"},
      {"measurement": "inhibition of HIF hydroxylase / HPH", "setting": "[2]", "result": "also an inhibitor"}
    ]},
    {"molecule": "CC(C)[C@H](NC(=O)C(=O)O)C(=O)O", "note": "[NK80]", "values": [
      {"measurement": "Disruption of HIF-VHL interaction", "setting": "[3]", "result": "No"}
    ]},
    {"molecule": "C[C@H](NC(=O)C(=O)O)C(=O)O", "note": "[NK81, oxalyl L-alanine]", "values": [
      {"measurement": "Disruption of HIF-VHL interaction", "setting": "[3]", "result": "Yes"}
    ]},
    {"molecule": "C[C@@H](NC(=O)C(=O)O)C(=O)O", "note": "[NK82, oxalyl D-alanine]", "values": [
      {"measurement": "Disruption of HIF-VHL interaction", "setting": "[3]", "result": "No"}
    ]},
    {"molecule": "O=C(O)CNC(=O)C(=O)O", "note": "[NK87, oxalylglycine]", "values": [
      {"measurement": "Disruption of HIF-VHL interaction", "setting": "[3]", "result": "Yes"},
      {"measurement": "pVHL binding after treatment of Gal-Hif549-582-VP16 with cell extract in the presence of inhibitor", "setting": "[3]", "result": "reduced binding of pVHL"},
      {"measurement": "pVHL binding after treatment with cell extract in the presence of inhibitor and additional 2-oxoglutarate", "setting": "[3]; plus additional 2-oxoglutarate", "result": "strong binding"}
    ]},
    {"molecule": "O=C(NO)c1ccccc1", "note": "[benzohydroxamic acid]", "values": [
      {"measurement": "pVHL binding after treatment of Gal-Hif549-582-VP16 with cell extract in the presence of inhibitor", "setting": "[3]", "result": "reduced pVHL binding"}
    ]},
    {"molecule": "Clc1ccccc1C(c1ccccc1)(c1ccccc1)n1ccnc1", "note": "[clotrimazole, reference compound]", "values": [
      {"measurement": "effect of pretreatment of extracts on modifying activity", "setting": "[3]", "result": "did not significantly affect activity"}
    ]},
    {"molecule": "CCOC(=O)c1ccc(O)c(O)c1", "note": "[ethyl dihydroxybenzoate]", "values": [
      {"measurement": "pVHL binding after treatment of Gal-Hif549-582-VP16 with cell extract in the presence of inhibitor", "setting": "[3]", "result": "reduced pVHL binding"}
    ]},
    {"molecule": "N[C@@H](CCC(=O)N[C@@H](CS)C(=O)NCC(=O)O)C(=O)O", "note": "[glutathione, gamma-glutamyl-cysteinyl-glycine]", "values": [
      {"measurement": "inhibition of HIF hydroxylase / HPH", "setting": "[2]", "result": "inhibitors of HPH"}
    ]},
    {"molecule": "C[n+]1ccc(-c2cc[n+](C)cc2)cc1", "note": "[methyl-viologen, reference compound]", "values": [
      {"measurement": "effect of pretreatment of extracts on modifying activity", "setting": "[3]", "result": "did not significantly affect activity"}
    ]}
  ]
}
